Experimental data reported in patent publication US10098964B2, “Inclusion complexes and methods for making the same” (The Board of Trustees of the University of Illinois, priority 2015, dated 2018).

Legend:
[1] = In-vitro fermentation (large intestine): butyrate produced; format: in vitro ADME
[2] = cited from earlier work

Structure (SMILES) | Butyrate produced, 4 hr ([1]; fermentation 4 hr, representative of ascending large intestine) | Butyrate produced, 8 hr ([1]; fermentation 8 hr, representative of transverse large intestine) | Butyrate produced, 12 hr ([1]; fermentation 12 hr, representative of descending large intestine) | half-life in human plasma [2]
CCCC(=O)OCC(COC(=O)CCC)OC(=O)CCC [Tributyrin, 1,3-di(butanoyloxy)propan-2-yl butanoate] | 106389.69 µg/g (DMB) | 164605.74 µg/g (DMB) | 134093.05 µg/g (DMB) | –
CCCC(=O)O [butyrate, butyric acid] | – | – | – | < 6 min
